Measured values: PubChem BioAssay AID1845216 (Molecular Pharmacology Branch, DTP, NCI, 2023)

Test system: SW 982 tumor spheroid viability
Assay: Anticancer human tumor SW 982 cell line growth inhibition;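 further: spheroids exposed to compound for 7 days before readout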
Conditions: spheroids with HUVEC and MSC; for IC50: curve of first compound; for viability, T/C: stronger effect = lower value
Summary of the method: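 Complex tumor spheroids combined malignant cells with endothelial cells and mesenchymal stem cells. DNA-damaging drugs and DNA repair inhibitors were tested alone and in combination, at half-log dilutions down from clinical Cmax (top 10 microM if Cmax unknown), 0.25% DMSO final.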

In the case of `CNCc1ccc(-c2cc(-c3nc(-c4ccc(S(=O)(=O)C(C)C)cc4)cnc3N)on2)cc1` + COc1cc2c(cc1O)CCNC21CSC2c3c(OC(C)=O)c(C)c4c(c3C(COC1=O)N1C(O)C3Cc5cc(C)c(OC)c(O)c5C(C21)N3C)OCO4, the IC50 (second compound 30 pM) is reported as 211 nM, the IC50 (second compound 94.9 pM) is reported as 131 nM and the IC50 (second compound 0.0003 µM) is reported as 107 nM. The IC50 (second compound 0.000949 µM) was less than 9.49 nM, the IC50 (second compound 0.003 µM) was less than 9.49 nM and the viability, T/C (second compound 30 pM, first compound 0.00949 µM) was 99.6%. It also gave a viability, T/C (second compound 30 pM, first compound 0.03 µM) of 95.6%, a viability, T/C (second compound 30 pM, first compound 0.0949 µM) of 78.3% and a viability, T/C (second compound 30 pM, first compound 0.3 µM) of 33.4%. The viability, T/C (second compound 30 pM, first compound 0.949 µM) was 23.8%, the viability, T/C (second compound 30 pM, first compound 3 µM) was 2.48% and the viability, T/C (second compound 94.9 pM, first compound 0.00949 µM) was 100%. For the same compound, the viability, T/C (second compound 94.9 pM, first compound 0.03 µM) was 94%, the viability, T/C (second compound 94.9 pM, first compound 0.0949 µM) was 55.9% and the viability, T/C (second compound 94.9 pM, first compound 0.3 µM) was 26.4%. For the same compound, the viability, T/C (second compound 94.9 pM, first compound 0.949 µM) was 18.9%, the viability, T/C (second compound 94.9 pM, first compound 3 µM) was 2.12% and the viability, T/C (second compound 0.0003 µM, first compound 0.00949 µM) was 84.7%. The viability, T/C (second compound 0.0003 µM, first compound 0.03 µM) was 81%, the viability, T/C (second compound 0.0003 µM, first compound 0.0949 µM) was 47.9% and the viability, T/C (second compound 0.0003 µM, first compound 0.3 µM) was 28.2%. It also gave a viability, T/C (second compound 0.0003 µM, first compound 0.949 µM) of 16.5%, a viability, T/C (second compound 0.0003 µM, first compound 3 µM) of 2.22% and a viability, T/C (second compound 0.000949 µM, first compound 0.00949 µM) of 49.3%. For the same compound, the viability, T/C (second compound 0.000949 µM, first compound 0.03 µM) was 39.2%, the viability, T/C (second compound 0.000949 µM, first compound 0.0949 µM) was 28.2% and the viability, T/C (second compound 0.000949 µM, first compound 0.3 µM) was 15.9%. For the same compound, the viability, T/C (second compound 0.000949 µM, first compound 0.949 µM) was 9.5%, the viability, T/C (second compound 0.000949 µM, first compound 3 µM) was 0.69% and the viability, T/C (second compound 0.003 µM, first compound 0.00949 µM) was 0.4%. The viability, T/C (second compound 0.003 µM, first compound 0.03 µM) was 1.22%, the viability, T/C (second compound 0.003 µM, first compound 0.0949 µM) was 0.92% and the viability, T/C (second compound 0.003 µM, first compound 0.3 µM) was 0.5%. For the same compound, the viability, T/C (second compound 0.003 µM, first compound 0.949 µM) was 1.07% and the viability, T/C (second compound 0.003 µM, first compound 3 µM) was 0.31%.
